Test results: ChEMBL document CHEMBL5505966, “Synthesis and pharmacological characterization of conformationally restricted 2-amino-Adipic acid analogs and carboxycyclopropyl glycines as selective metabotropic glutamate 2 receptor agonists” (Eur J Med Chem, 2024)
Active and inactive are the calls of the source. No cut-off for these calls is given here.

What was measured:
Type in all cases: functional, cell-based
[1] = target: Metabotropic glutamate receptor 1 (Rattus norvegicus) (UniProt P23385); assay: Agonist activity at rat mGluR1 receptor expressed in HEK293 cells at 30 uM by IP-1 HTRF assay
[2] = target: Metabotropic glutamate receptor 5 (Rattus norvegicus) (UniProt P31424); assay: Agonist activity at rat mGluR5 receptor expressed in HEK293 cells at 30 uM by IP-1 HTRF assay
[3] = target: Metabotropic glutamate receptor 2 (Rattus norvegicus) (UniProt P31421); assay: Agonist activity at rat mGluR2 receptor expressed in HEK293 cells at 30 uM by IP-1 HTRF assay
[4] = target: Metabotropic glutamate receptor 3 (Rattus norvegicus) (UniProt P31422); assay: Agonist activity at rat mGluR3 receptor expressed in HEK293 cells at 30 uM by IP-1 HTRF assay
[5] = target: Metabotropic glutamate receptor 4 (Rattus norvegicus) (UniProt P31423); assay: Agonist activity at rat mGluR4 receptor expressed in HEK293 cells at 30 uM by IP-1 HTRF assay
[6] = target: Metabotropic glutamate receptor 6 (Rattus norvegicus) (UniProt P35349); assay: Agonist activity at rat mGluR6 receptor expressed in HEK293 cells at 30 uM by IP-1 HTRF assay
[7] = target: Metabotropic glutamate receptor 7 (Rattus norvegicus) (UniProt P35400); assay: Agonist activity at rat mGluR7 receptor expressed in HEK293 cells at 30 uM by IP-1 HTRF assay
[8] = target: Metabotropic glutamate receptor 8 (Rattus norvegicus) (UniProt P70579); assay: Agonist activity at rat mGluR8 receptor expressed in HEK293 cells at 30 uM by IP-1 HTRF assay
[9] = target: Metabotropic glutamate receptor 1 (Rattus norvegicus) (UniProt P23385); assay: Antagonist activity at rat mGluR1 receptor expressed in HEK293 cells by IP-1 HTRF assay
[10] = target: Metabotropic glutamate receptor 5 (Rattus norvegicus) (UniProt P31424); assay: Antagonist activity at rat mGluR5 receptor expressed in HEK293 cells by IP-1 HTRF assay
[11] = target: Metabotropic glutamate receptor 2 (Rattus norvegicus) (UniProt P31421); assay: Antagonist activity at rat mGluR2 receptor expressed in HEK293 cells by IP-1 HTRF assay
[12] = target: Metabotropic glutamate receptor 3 (Rattus norvegicus) (UniProt P31422); assay: Antagonist activity at rat mGluR3 receptor expressed in HEK293 cells by IP-1 HTRF assay
[13] = target: Metabotropic glutamate receptor 4 (Rattus norvegicus) (UniProt P31423); assay: Antagonist activity at rat mGluR4 receptor expressed in HEK293 cells by IP-1 HTRF assay
[14] = target: Metabotropic glutamate receptor 6 (Rattus norvegicus) (UniProt P35349); assay: Antagonist activity at rat mGluR6 receptor expressed in HEK293 cells by IP-1 HTRF assay
[15] = target: Metabotropic glutamate receptor 7 (Rattus norvegicus) (UniProt P35400); assay: Antagonist activity at rat mGluR7 receptor expressed in HEK293 cells by IP-1 HTRF assay
[16] = target: Metabotropic glutamate receptor 8 (Rattus norvegicus) (UniProt P70579); assay: Antagonist activity at rat mGluR8 receptor expressed in HEK293 cells by IP-1 HTRF assay
[17] = target: Metabotropic glutamate receptor 2 (Rattus norvegicus, UniProt P31421); assay: Agonist activity at rat mGluR2 receptor expressed in HEK293 cells by IP-1 HTRF assay; conditions: read-out: EC50

Chain of Metabotropic glutamate receptor 7 (Rattus norvegicus) (P35400 whole entry): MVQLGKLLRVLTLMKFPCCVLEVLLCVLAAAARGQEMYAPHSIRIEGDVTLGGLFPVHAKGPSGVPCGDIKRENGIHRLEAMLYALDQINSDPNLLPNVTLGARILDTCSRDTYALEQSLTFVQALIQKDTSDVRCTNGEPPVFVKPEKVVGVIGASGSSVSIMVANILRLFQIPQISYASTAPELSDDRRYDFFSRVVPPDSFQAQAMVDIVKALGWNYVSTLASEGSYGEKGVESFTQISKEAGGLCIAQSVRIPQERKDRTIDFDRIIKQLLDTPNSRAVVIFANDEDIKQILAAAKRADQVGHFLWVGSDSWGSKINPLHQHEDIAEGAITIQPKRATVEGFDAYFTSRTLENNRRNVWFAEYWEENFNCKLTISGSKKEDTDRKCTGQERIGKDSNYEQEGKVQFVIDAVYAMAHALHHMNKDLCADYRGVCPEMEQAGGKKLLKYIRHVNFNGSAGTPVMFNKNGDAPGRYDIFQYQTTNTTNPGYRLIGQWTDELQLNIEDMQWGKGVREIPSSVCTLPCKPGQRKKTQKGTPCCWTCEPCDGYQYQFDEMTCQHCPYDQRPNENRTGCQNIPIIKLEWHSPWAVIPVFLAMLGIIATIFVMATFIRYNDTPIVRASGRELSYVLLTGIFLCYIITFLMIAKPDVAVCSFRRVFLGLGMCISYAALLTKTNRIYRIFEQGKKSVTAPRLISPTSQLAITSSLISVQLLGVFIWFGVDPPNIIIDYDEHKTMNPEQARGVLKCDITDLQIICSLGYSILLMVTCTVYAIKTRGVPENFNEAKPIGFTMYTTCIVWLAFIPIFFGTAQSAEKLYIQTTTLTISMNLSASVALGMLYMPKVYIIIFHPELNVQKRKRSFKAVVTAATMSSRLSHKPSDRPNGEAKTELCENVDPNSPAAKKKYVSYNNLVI
Chain of Metabotropic glutamate receptor 2 (Rattus norvegicus) (P31421 19-872 limits assumed): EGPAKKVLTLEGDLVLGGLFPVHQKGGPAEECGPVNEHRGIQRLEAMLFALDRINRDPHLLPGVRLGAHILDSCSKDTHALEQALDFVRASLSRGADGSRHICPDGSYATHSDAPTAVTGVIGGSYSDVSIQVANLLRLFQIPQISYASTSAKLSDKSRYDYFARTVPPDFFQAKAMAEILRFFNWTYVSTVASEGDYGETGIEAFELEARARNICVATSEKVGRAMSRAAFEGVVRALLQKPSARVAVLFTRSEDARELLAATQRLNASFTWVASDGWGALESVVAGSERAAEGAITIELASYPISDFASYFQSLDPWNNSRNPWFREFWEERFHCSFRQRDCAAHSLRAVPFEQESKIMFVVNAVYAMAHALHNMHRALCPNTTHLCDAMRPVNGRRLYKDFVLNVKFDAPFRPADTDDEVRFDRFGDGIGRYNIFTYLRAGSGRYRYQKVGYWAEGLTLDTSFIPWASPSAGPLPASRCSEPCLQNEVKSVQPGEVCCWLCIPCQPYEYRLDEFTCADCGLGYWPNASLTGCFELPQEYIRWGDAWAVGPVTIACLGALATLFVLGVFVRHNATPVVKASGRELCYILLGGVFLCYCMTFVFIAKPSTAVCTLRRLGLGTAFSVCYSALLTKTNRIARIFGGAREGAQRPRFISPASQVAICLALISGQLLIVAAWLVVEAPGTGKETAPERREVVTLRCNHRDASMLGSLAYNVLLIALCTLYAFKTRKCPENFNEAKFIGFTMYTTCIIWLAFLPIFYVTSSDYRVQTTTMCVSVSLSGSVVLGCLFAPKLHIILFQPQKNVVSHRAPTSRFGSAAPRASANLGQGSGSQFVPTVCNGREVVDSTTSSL
Chain of Metabotropic glutamate receptor 1 (Rattus norvegicus) (P23385 19-1199 limits assumed): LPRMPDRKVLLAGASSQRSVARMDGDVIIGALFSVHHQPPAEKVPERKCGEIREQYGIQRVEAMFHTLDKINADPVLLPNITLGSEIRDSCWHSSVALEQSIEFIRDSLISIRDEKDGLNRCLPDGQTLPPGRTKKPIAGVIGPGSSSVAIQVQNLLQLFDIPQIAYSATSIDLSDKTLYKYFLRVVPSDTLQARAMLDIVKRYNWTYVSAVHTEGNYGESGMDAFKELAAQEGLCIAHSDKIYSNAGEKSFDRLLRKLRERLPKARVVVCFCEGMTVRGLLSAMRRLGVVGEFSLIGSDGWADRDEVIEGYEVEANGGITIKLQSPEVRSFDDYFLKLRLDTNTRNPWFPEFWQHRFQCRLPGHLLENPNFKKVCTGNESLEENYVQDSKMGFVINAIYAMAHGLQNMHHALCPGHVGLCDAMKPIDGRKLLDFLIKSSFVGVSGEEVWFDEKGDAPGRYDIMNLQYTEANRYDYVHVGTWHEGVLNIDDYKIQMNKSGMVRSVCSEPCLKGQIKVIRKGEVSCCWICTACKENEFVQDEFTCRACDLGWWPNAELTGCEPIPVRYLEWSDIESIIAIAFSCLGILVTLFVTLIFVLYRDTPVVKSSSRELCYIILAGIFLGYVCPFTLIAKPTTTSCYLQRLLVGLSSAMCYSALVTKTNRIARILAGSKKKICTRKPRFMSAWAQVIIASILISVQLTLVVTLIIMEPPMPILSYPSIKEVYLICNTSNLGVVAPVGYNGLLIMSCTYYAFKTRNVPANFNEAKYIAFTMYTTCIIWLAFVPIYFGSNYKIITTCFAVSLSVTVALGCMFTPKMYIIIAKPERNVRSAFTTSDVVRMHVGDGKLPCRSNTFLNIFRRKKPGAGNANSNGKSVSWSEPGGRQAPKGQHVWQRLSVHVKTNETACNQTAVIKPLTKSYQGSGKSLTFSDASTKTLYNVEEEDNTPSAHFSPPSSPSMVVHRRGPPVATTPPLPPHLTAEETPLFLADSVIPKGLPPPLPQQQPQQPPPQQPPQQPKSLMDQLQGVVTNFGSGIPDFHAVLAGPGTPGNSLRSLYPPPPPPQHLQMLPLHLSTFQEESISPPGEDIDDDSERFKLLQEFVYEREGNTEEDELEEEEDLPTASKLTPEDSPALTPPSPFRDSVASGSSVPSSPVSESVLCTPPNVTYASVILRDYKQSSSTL
Chain of Metabotropic glutamate receptor 5 (Rattus norvegicus) (P31424 21-1203 limits assumed): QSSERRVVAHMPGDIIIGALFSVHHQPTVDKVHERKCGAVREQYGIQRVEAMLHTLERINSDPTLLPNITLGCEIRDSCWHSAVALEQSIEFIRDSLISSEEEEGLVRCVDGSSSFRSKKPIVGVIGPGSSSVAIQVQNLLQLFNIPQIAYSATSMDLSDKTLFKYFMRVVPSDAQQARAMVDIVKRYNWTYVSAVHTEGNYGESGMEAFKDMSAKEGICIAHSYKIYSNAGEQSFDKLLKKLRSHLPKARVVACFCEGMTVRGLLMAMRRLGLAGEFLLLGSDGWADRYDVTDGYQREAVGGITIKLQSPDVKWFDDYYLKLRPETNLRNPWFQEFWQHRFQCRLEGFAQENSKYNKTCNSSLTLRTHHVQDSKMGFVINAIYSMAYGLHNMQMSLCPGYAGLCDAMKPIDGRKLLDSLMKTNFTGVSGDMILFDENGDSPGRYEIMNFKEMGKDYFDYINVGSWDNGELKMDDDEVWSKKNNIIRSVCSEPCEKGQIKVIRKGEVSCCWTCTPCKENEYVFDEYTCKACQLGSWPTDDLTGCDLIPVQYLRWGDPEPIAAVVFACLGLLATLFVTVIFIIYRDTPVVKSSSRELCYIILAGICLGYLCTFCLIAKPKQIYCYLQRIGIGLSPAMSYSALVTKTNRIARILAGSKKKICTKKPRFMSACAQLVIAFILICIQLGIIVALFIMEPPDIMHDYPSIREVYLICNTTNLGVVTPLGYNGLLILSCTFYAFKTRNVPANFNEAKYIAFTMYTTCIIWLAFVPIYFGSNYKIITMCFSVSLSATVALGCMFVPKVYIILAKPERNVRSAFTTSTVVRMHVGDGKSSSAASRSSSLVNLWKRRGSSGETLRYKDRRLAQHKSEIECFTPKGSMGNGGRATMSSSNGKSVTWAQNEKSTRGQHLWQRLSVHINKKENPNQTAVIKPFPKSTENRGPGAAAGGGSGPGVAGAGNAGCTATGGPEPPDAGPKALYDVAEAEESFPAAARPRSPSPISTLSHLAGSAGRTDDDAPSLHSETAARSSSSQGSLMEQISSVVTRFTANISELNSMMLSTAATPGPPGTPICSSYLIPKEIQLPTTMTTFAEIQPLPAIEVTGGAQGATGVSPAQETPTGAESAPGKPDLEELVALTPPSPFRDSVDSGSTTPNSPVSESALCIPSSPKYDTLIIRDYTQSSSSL
Chain of Metabotropic glutamate receptor 4 (Rattus norvegicus) (P31423 whole entry): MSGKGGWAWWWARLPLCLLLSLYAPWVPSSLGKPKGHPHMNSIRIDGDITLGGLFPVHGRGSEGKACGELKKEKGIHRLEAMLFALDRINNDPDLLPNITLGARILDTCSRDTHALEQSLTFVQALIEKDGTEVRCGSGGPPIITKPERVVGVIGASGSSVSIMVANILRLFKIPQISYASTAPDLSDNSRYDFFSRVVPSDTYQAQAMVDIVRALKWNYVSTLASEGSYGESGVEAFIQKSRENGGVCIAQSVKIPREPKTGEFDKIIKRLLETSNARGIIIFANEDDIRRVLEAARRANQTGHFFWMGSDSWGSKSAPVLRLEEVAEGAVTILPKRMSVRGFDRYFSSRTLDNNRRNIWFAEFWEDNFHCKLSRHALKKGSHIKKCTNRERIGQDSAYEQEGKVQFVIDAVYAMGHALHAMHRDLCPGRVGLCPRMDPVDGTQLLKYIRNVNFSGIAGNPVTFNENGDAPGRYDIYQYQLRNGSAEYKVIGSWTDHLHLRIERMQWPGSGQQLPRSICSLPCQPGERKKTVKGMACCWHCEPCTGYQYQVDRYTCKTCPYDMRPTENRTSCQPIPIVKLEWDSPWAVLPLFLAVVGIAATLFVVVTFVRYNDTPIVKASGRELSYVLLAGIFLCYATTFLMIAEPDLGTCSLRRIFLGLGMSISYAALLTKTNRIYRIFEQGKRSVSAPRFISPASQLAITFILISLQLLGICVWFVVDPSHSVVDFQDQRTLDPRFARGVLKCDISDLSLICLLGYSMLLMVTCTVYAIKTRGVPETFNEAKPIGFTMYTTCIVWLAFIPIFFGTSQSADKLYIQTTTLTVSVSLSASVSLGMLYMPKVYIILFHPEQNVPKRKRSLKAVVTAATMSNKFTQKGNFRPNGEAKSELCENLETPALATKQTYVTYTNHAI

Row | Activity [1] | Activity [2] | Activity [3] | Activity [4] | Activity [5] | Activity [6] | Activity [7] | Activity [8] | inhibition [9] | inhibition [10] | inhibition [11] | inhibition [12] | inhibition [13] | inhibition [14] | inhibition [15] | inhibition [16] | EC50 [17] [µM] | Compound
1 | inactive | inactive | inactive | inactive | inactive | inactive | inactive | inactive | inactive | inactive | inactive | inactive | inactive | inactive | inactive | inactive | – | C[C@]1(C[C@H](N)C(=O)O)C[C@@H]1C(=O)O
2 | inactive | inactive | inactive | inactive | inactive | inactive | inactive | inactive | inactive | inactive | inactive | inactive | inactive | inactive | inactive | inactive | – | CC[C@]1(C(=O)O)C[C@@H]1[C@H](N)C(=O)O
3 | inactive | inactive | – | inactive | inactive | inactive | inactive | inactive | inactive | inactive | inactive | inactive | inactive | inactive | inactive | inactive | 8.9 | C[C@@]1(C(=O)O)C[C@@H]1C(N)C(=O)O (mixture of isomers)

Further lines, the molecule ahead of its results:

Row | Compound | Activity [1] | Activity [2] | Activity [3] | Activity [4] | Activity [5] | Activity [6] | Activity [7] | Activity [8] | inhibition [9] | inhibition [10] | inhibition [11] | inhibition [12] | inhibition [13] | inhibition [14] | inhibition [15] | inhibition [16] | EC50 [17] [µM]
4 | C[C@]1(C(=O)O)C[C@H]1C(N)C(=O)O (mixture of isomers) | inactive | inactive | inactive | inactive | inactive | inactive | inactive | inactive | inactive | inactive | inactive | inactive | inactive | inactive | inactive | inactive | –
5 | C[C@@]1(C[C@H](N)C(=O)O)C[C@@H]1C(=O)O | inactive | inactive | – | inactive | inactive | inactive | inactive | inactive | inactive | inactive | inactive | inactive | inactive | inactive | inactive | inactive | 7.5
6 | CC1(C[C@H](N)C(=O)O)CC1C(=O)O (some centres undefined) | – | – | – | – | – | – | – | – | inactive | inactive | inactive | inactive | inactive | inactive | inactive | inactive | –
7 | C[C@]1(C(=O)O)C[C@@H]1[C@H](N)C(=O)O | inactive | inactive | – | inactive | inactive | inactive | inactive | inactive | inactive | inactive | inactive | inactive | inactive | inactive | inactive | inactive | 4.1
